Measurements taken from US12662676B2, “Aptamer nucleic acid molecule, and complex and application thereof” (EAST CHINA UNIVERSITY OF SCIENCE AND TECHNOLOGY, priority 2019, dated 2026).

Experiment: Pepper-based GTP sensor
Type: biochemical
Settings: with III-3, presence vs absence of GTP; linkage 3
Experimental: In order to construct Pepper-based sensors for detecting analytes, the nucleotides in the stem-loop region in the Pepper-1 (SEQ ID No: 2) structure were replaced with the aptamers that can specifically recognize and bind adenosine and guanosine (GTP), respectively. The aptamers Pepper-1 were fused by linkage with different lengths and different nucleotides (FIG. 10A). The RNA sensors were prepared according to the commonly used experimental method (1). The RNA sensors were incubated with III-3 fluorophore, and the fluorescence was measured in the presence or absence of adenosine or GTP using a multifunctional microplate reader.

## GTP sensor: Pepper-1 with stem-loop replaced by GTP aptamer, linkage 3, SEQ ID No:22 (UCCCCAAUCGUGGCGUGUCGUAAGAAGAGCACGUAUACGCAAUAACUGGCGCCGGGA; listed as RNA, chemistry not given here)
  activation fold of GTP sensor: 10 folds
